Assay results reported in patent publication US7449477B2, “7-phenyl-isoquinoline-5-sulfonylamino derivatives as inhibitors of akt (protein kinase B)” (Eli Lilly and Company, priority 2003, dated 2008).
Counter-ions that a name gives are not always drawn.

Target: T1, active human Akt1 (Homo sapiens, UniProt P31749)
T1 construct: Active human recombinant Akt1 (full-length) purified from Sf9 insect cells; purchased Upstate Biotechnology, Inc. 14-276; host or cells: Sf9 insect cells
Assay: Akt1 Phosphorylation Assay (phosphocellulose filter-binding, 33P-Crosstide)
Assay type: biochemical
Settings: active human recombinant Akt1 (full-length) 10 nM; 12.5 μM Crosstide; 20 μM ATP; 30 minutes at room temperature
Experimental: Akt1 Phosphorylation Assay
The assay described measures the phosphorylation of Crosstide by active human Akt1 and other Akt isoforms. Crosstide contains a consensus sequence derived from Akt substrates GSK3b and forkhead transcription factors (FKs). The ^33P-labeled Crosstide substrate is captured by phosphocellulose membrane filter plates.
Active human recombinant Akt1 (full-length) purified from Sf9 insect cells is from Upstate Biotechnology, Inc. (Cat. #14-276, 405 μg/ml). Crosstide substrate, NH2-GRPRTSSFAEG-COOH (M.W.1164) is purchased from Multiple Peptide System (Cat. # L59/GR145-153).
Solution (A): 20% DMSO (dimethylsulphoxide) or Compound in 20% DMSO; Solution (B): Assay Buffer Mix: 31.25 μM Crosstide, 37.5 mM MgCl2, 87.5 mM HEPES, pH 7.3, 50 μM ATP γ-^33P-ATP, 0.05 μCi/μl; Solution (C): Akt Kinase Mix: 31.25 mM HEPES, pH 7.3; 1 mM DTT, 25 nM UBI Akt1.
Procedure for Phosphocellulose Filter-Binding Assay
Ten μl of Solution (A) are first mixed with 20 μl Solution (B). The enzymatic reaction is initiated by adding 20 μl Solution (C) to the mixture. (Final concentration or amount in a 50-μl reaction mix: 4% DMSO or various compound concentration in 4% DMSO; 12.5 μM Crosstide; 15 mM MgCl2; 35 mM HEPES, pH7.3; 20 μM ATP; 1 μCi γ-^33P-ATP; 0.4 mM DTT; 10 nM UBI Akt1.) The reactions are performed in 96-well microtiter plates.
After 30 minutes at room temperature, the reaction is terminated by adding 80 μl of 10% H3PO4. An aliquot of 100 μl from each well is transferred to the phosphocellulose filter plate (Millipore MultiScreen, Catalog #MAPHN0B50). After 30 minutes, the reaction mix is filtered with a Millipore manifold following by 3 washes with 0.5% H3PO4. The filter is then vacuum-dried and the plate is fitted onto a Packard carrier. 100 μl/well Microscint20 are added and the contents are counted in a Packard Top Count.

T1 sequence (P31749 whole entry): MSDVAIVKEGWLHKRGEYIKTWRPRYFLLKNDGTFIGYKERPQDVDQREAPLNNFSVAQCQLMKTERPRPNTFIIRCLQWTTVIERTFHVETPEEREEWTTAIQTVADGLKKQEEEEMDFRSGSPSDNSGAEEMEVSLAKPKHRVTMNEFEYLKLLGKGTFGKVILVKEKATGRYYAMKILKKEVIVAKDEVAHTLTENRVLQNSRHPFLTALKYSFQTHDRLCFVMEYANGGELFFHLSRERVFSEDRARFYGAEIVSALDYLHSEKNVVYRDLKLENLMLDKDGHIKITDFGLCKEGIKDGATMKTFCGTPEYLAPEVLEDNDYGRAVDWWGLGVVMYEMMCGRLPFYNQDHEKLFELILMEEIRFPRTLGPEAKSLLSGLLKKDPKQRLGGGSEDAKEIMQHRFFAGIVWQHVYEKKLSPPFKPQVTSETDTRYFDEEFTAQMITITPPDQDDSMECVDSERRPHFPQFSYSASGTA

SMILES	IC50
CN1CCN(c2cc(Cl)ccc2CCCNCCNS(=O)(=O)c2cc(-c3ccccc3)cc3cnccc23)CC1 [Example 49, 7-Phenyl-isoquinoline-5-sulfonic acid {2-[3-(4-chloro-2-(4-methyl-piperazin-1-yl)-phenyl)-propylamino]-ethyl}-amide, tetrahydrochloride salt]	≤ 2000 nM
O=S1(=O)CCN(c2cc(Cl)ccc2CCCNCCNS(=O)(=O)c2cc(-c3ccccc3)cc3cnccc23)CC1 [Example 52, 7-Phenyl-isoquinoline-5-sulfonic acid {2-[3-(4-chloro-2-(1,1-dioxo-thiomorpholin-4-yl)-phenyl)-propylamino]-ethyl}-amide, trihydrochloride salt]	≤ 2000 nM
O=S(=O)(NCCNCCCc1ccc(Cl)cc1C1CCNCC1)c1cc(-c2ccccc2)cc2cnccc12 [Example 53, 7-Phenyl-isoquinoline-5-sulfonic acid {2-[3-(4-chloro-2-(piperidin-4-yl)-phenyl)-propylamino]-ethyl}-amide, trihydrochloride salt]	≤ 2000 nM
CC1CN(c2cc(Cl)ccc2CCCNCCNS(=O)(=O)c2cc(-c3ccccc3)cc3cnccc23)CCN1 (centres unmarked) [Example 54, 7-Phenyl-isoquinoline-5-sulfonic acid {2-[3-(4-chloro-2-(3-methyl-piperazin-1-yl)-phenyl)-propylamino]-ethyl}-amide, tetrahydrochloride salt]	≤ 2000 nM
CN1CCC(Oc2cc(Cl)ccc2CCCNCCNS(=O)(=O)c2cc(-c3ccccc3)cc3cnccc23)C1 (centres unmarked) [Example 55, 7-Phenyl-isoquinoline-5-sulfonic acid {2-[3-(4-chloro-2-(1-methyl-pyrrolidin-3-yl)oxy-phenyl)-propylamino]-ethyl}-amide, trihydrochloride salt]	≤ 2000 nM
O=S(=O)(NCCNCCCc1ccc(Cl)cc1OC1CCNC1)c1cc(-c2ccccc2)cc2cnccc12 (centres unmarked) [Example 56, 7-Phenyl-isoquinoline-5-sulfonic acid {2-[3-(4-chloro-2-(pyrrolidin-3-yl)oxy-phenyl)-propylamino]-ethyl}-amide, trihydrochloride salt]	≤ 2000 nM
O=[N+]([O-])c1ccc(CCCNCCNS(=O)(=O)c2cc(-c3ccccc3)cc3cnccc23)c(CCO)c1 [Example 58, 7-Phenyl-isoquinoline-5-sulfonic acid {2-[3-(2-(2-hydroxy-ethyl)-4-nitro-phenyl)-propylamino]-ethyl}-amide, dihydrochloride salt]	≤ 2000 nM
CN(C)CCOc1cc(Cl)ccc1CCCNCCNS(=O)(=O)c1cc(-c2ccccc2)cc2cnccc12 [Example 59, 7-Phenyl-isoquinoline-5-sulfonic acid {2-[3-(4-chloro-2-(2-dimethylamino-ethoxy)-phenyl)-propylamino]-ethyl}-amide, dihydrochloride salt]	≤ 2000 nM
COC(=O)c1cc([N+](=O)[O-])ccc1CCCNCCNS(=O)(=O)c1cc(-c2ccccc2)cc2cnccc12 [Example 62, 7-Phenyl-isoquinoline-5-sulfonic acid {2-[3-(2-methoxycarbonyl-4-nitrophenyl)-propylamino]-ethyl}-amide, dihydrochloride salt]	≤ 2000 nM
COc1cc([N+](=O)[O-])ccc1CCCNCCNS(=O)(=O)c1cc(-c2ccccc2)cc2cnccc12 [Example 63, 7-Phenyl-isoquinoline-5-sulfonic acid {2-[3-(2-methoxy-4-nitrophenyl)-propylamino]-ethyl}-amide, dihydrochloride salt]	≤ 2000 nM
O=C(O)c1cc([N+](=O)[O-])ccc1CCCNCCNS(=O)(=O)c1cc(-c2ccccc2)cc2cnccc12 [Example 64, 7-Phenyl-isoquinoline-5-sulfonic acid {2-[3-(2-carboxy-4-nitrophenyl)-propylamino]-ethyl}-amide, dihydrochloride salt]	≤ 2000 nM
O=S(=O)(NCCNCCCc1ccc(Cl)cc1Cl)c1cc(-c2ccccc2)cc2cnccc12 [Example 65, 7-Phenyl-isoquinoline-5-sulfonic acid {2-[3-(2,4-dichlorophenyl)-propylamino]-ethyl}-amide, dihydrochloride salt]	≤ 2000 nM
O=S(=O)(NCCNCCCc1cccc(Cl)c1Cl)c1cc(-c2ccccc2)cc2cnccc12 [Example 66, 7-Phenyl-isoquinoline-5-sulfonic acid {2-[3-(2,3-dichlorophenyl)-propylamino]-ethyl}-amide, dihydrochloride salt]	≤ 2000 nM
N#Cc1ccc(CCCNCCNS(=O)(=O)c2cc(-c3ccccc3)cc3cnccc23)cc1C(F)(F)F [Example 67, 7-Phenyl-isoquinoline-5-sulfonic acid {2-[3-(4-cyano-3-trifluoromethylphenyl)-propylamino]-ethyl}-amide, dihydrochloride salt]	≤ 2000 nM
O=S(=O)(NCCNCCCc1cccc(F)c1F)c1cc(-c2ccccc2)cc2cnccc12 [Example 68, 7-Phenyl-isoquinoline-5-sulfonic acid {2-[3-(2,3-difluorophenyl)-propylamino]-ethyl}-amide, dihydrochloride salt]	≤ 2000 nM
O=S(=O)(NCCNCCCc1ccc(Cl)cc1OCCN1CCOCC1)c1cc(-c2ccccc2)cc2cnccc12 [Example 69, 7-Phenyl-isoquinoline-5-sulfonic acid (2-{3-[4-chloro-2-(2-morpholino-4-yl-ethoxy)-phenyl]-propylamino}-ethyl)-amide, dihydrochloride salt]	≤ 2000 nM
O=S(=O)(NCCNCCCc1ccc(F)cc1F)c1cc(-c2ccccc2)cc2cnccc12 [Example 70, 7-Phenyl-isoquinoline-5-sulfonic acid {2-[3-(2,4-difluorophenyl)-propylamino]-ethyl}-amide, dihydrochloride salt]	≤ 2000 nM
Nc1ccc(CCCNCCNS(=O)(=O)c2cc(-c3ccccc3)cc3cnccc23)cc1 [Example 72, 7-Phenyl-isoquinoline-5-sulfonic acid [2-(3-(4-aminophenyl)-propylamino)-ethyl]-amide, dihydrochloride salt]	≤ 2000 nM
O=[N+]([O-])c1ccc(C(O)CCNCCNS(=O)(=O)c2cc(-c3ccccc3)cc3cnccc23)cc1 (centres unmarked) [Example 73, 7-Phenyl-isoquinoline-5-sulfonic acid [2-(3-hydroxy-3-(4-nitrophenyl)-propylamino)-ethyl]-amide, dihydrochloride salt]	≤ 2000 nM
N#Cc1ccc(C(O)CCNCCNS(=O)(=O)c2cc(-c3ccccc3)cc3cnccc23)cc1 (centres unmarked) [Example 75, 7-Phenyl-isoquinoline-5-sulfonic acid [2-(3-hydroxy-3-(4-cyanophenyl)-propylamino)-ethyl]-amide, dihydrochloride salt]	≤ 2000 nM
O=[N+]([O-])c1cccc(C(O)CCNCCNS(=O)(=O)c2cc(-c3ccccc3)cc3cnccc23)c1 (centres unmarked) [Example 77, 7-Phenyl-isoquinoline-5-sulfonic acid [2-(3-hydroxy-3-(3-nitrophenyl)-propylamino)-ethyl]-amide, dihydrochloride salt]	≤ 2000 nM
CS(=O)(=O)c1ccc(C(O)CCNCCNS(=O)(=O)c2cc(-c3ccccc3)cc3cnccc23)cc1 (centres unmarked) [Example 79, 7-Phenyl-isoquinoline-5-sulfonic acid [2-(3-hydroxy-3-(4-methanesulfonyl-phenyl)-propylamino)-ethyl]-amide, dihydrochloride salt]	≤ 2000 nM
O=S(=O)(NCCNCCC(O)c1ccc(S(=O)(=O)C(F)(F)F)cc1)c1cc(-c2ccccc2)cc2cnccc12 (centres unmarked) [Example 80, 7-Phenyl-isoquinoline-5-sulfonic acid [2-(3-hydroxy-3-(4-trifuoromethanesulfonyl-phenyl)-propylamino)-ethyl]-amide, dihydrochloride salt]	≤ 2000 nM
O=[N+]([O-])c1ccc([C@H](O)CCNCCNS(=O)(=O)c2cc(-c3ccccc3)cc3cnccc23)cc1 [Example 81, (R)-7-Phenyl-isoquinoline-5-sulfonic acid [2-(3-hydroxy-3-(4-nitrophenyl)-propylamino)-ethyl]-amide, mesylate salt]	≤ 2000 nM
O=[N+]([O-])c1ccc([C@@H](O)CCNCCNS(=O)(=O)c2cc(-c3ccccc3)cc3cnccc23)cc1 [Example 82, (S)-7-Phenyl-isoquinoline-5-sulfonic acid [2-(3-hydroxy-3-(4-nitrophenyl)-propylamino)-ethyl]-amide, mesylate salt]	≤ 2000 nM
O=[N+]([O-])c1ccc(C(O)C(O)CNCCNS(=O)(=O)c2cc(-c3ccccc3)cc3cnccc23)cc1 (centres unmarked) [Example 87, 7-Phenyl-isoquinoline-5-sulfonic acid [2-(2,3-dihydroxy-3-(4-nitrophenyl)-propylamino)-ethyl]-amide, dihydrochloride salt]	≤ 2000 nM
